{"source": "patent US20110104300A1", "about": "“Methods for Screening Chemical, Biological, and Physical Agents for Disinfecting Infectious Norovirus” (KIM LABORATORIES, INC., priority 2009, published 2011)", "key": {"Norovirus": {"tested_on": "Norovirus", "assay": "Suspension testing: Norovirus-positive stool in suspension, test agent, PBST neutralization, IMS bead capture, qRT-PCR", "set-up": "species or system human", "settings": "for antiviral activity against Norovirus (in words): nanosilver at any concentration tested, alcohol up to 70%; for Log Reduction: Suspension"}, "Human Norovirus": {"tested_on": "Human Norovirus", "assay": "Hard surface testing: Norovirus-positive stool dried on surface, test agent, PBST neutralization, IMS bead capture, qRT-PCR", "method": "For this method, a Norovirus-positive human stool sample was allowed to dry on the surface of a material. A sterilized surface material (e.g., stainless steel, ceramic, porcelain, or fabric, etc.), in this case a round stainless steel plate, was placed into the center of a sterile deep Petri dish. 20 μl of Norovirus-positive human stool sample was added to the center of the stainless steel plate. The stool sample was dried onto the surface of the material for 30 minutes at room temperature.\n100 μl of a test agent (e.g., a chemical disinfectant) was added on top of the dried stool sample. 100 μl of a neutral buffer, phosphate buffered saline-TWEEN® 20 (polysorbate) (PBST), was used as a negative control (in place of the test agent). 100 μl of 20% household bleach, (10500 ppm sodium hypochlorite, prepared fresh) was used as a positive control (in place of the test agent). The sample and the test agent, neutral buffer, and either 20% household bleach or 10500 ppm sodium hypochlorite were incubated at room temperature for as short as one minute to as long as 60 minutes.\n40 ml of PBST was added over the surface to fully submerge the surface material and to dislodge the entire dried stool sample. 40 ml PBST acts as a neutralizer for the test compound by dilution. If necessary, the dried stool sample was scraped with the end of a sterile pipette tip. The mixture was shaken for 15 minutes (at ˜150 rpm) in an orbital shaker at room temperature.\nThe supernatant is transferred to a 50 ml screw cap centrifuge tube (or similar container). 10-100 μl of Norovirus specific antibody conjugated IMS beads were added, and the resulting mixture was incubated for 1-2 hours with end over rotation (5-10 RPM). The Norovirus specific antibody was monoclonal antibody P2B2 (Kim Laboratories, Inc., Rantoul, Ill.). A tube was placed in a magnetic stand for 15 minutes to capture the IMS beads. The supernatant was removed, with care being taken not to dislodge the IMS beads. […]"}}, "data": [{"molecule": "O=C(O)CC(O)(CC(=O)O)C(=O)O", "note": "[Citric Acid Solution, Citric Acid]", "values": [{"measurement": "antiviral activity against Norovirus (in words)", "setting": "Norovirus; Suspension testing", "result": "ineffective"}, {"measurement": "Log Reduction", "setting": "Norovirus; 0.6%", "result": 1.26, "unit": "log"}]}, {"molecule": "CCO", "note": "[Ethanol solution, Ethanol]", "values": [{"measurement": "Log Reduction", "setting": "Norovirus; 70%", "result": 1.3, "unit": "log"}]}, {"molecule": "OCl", "note": "[Sodium Hypochlorite]", "values": [{"measurement": "Log Reduction", "setting": "Human Norovirus; Hard surface (porcelain tile), 20% of household bleach by Clorox brand", "result": ">5", "unit": "log"}, {"measurement": "Norovirus disinfection (in words)", "setting": "Human Norovirus; Hard surface testing, bleach dilution more than 2-3 weeks old", "result": "not effective"}, {"measurement": "antiviral activity against Human Norovirus (in words)", "setting": "Human Norovirus; Hard surface testing, nanosilver at any concentration tested", "result": "showed antiviral activity"}, {"measurement": "Norovirus disinfection (in words)", "setting": "Norovirus; Suspension testing, bleach dilution more than 2-3 weeks old, data not shown", "result": "not effective"}, {"measurement": "antiviral activity against Norovirus (in words)", "setting": "Norovirus; Suspension testing", "result": "showed antiviral activity"}, {"measurement": "Log Reduction", "setting": "Norovirus; 20% of household bleach by Clorox brand", "result": ">5", "unit": "log"}]}, {"molecule": "CCO", "note": "[alcohol]", "values": [{"measurement": "antiviral activity against Norovirus (in words)", "setting": "Norovirus; Suspension testing", "result": "ineffective"}]}, {"molecule": "OO", "note": "[hydrogen peroxide]", "values": [{"measurement": "antiviral activity against Norovirus (in words)", "setting": "Norovirus; Suspension testing", "result": "ineffective"}]}, {"molecule": "CC(O)C(=O)O", "note": "(centres unmarked) [lactic acid]", "values": [{"measurement": "antiviral activity against Norovirus (in words)", "setting": "Norovirus; Suspension testing", "result": "ineffective"}]}, {"molecule": "O=S(=O)([O-])O[O-].[K+].[K+]", "note": "[potassium peroxymonosulfate]", "values": [{"measurement": "antiviral activity against Norovirus (in words)", "setting": "Norovirus; Suspension testing", "result": "ineffective"}]}, {"molecule": "Povidone Iodine", "values": [{"measurement": "Log Reduction", "setting": "Norovirus; 5%", "result": 1.1, "unit": "log"}]}]}
